Results reported in patent US4477440A, “Renin inhibitors containing an n-terminal disulfide cycle” (Merck & Co., Inc., priority 1983, dated 1984).
pKi: −log10 of the molar value. Positions of bridges follow the written chain, without caps; N, C: chain ends. Non-standard residues stand in square brackets, D forms with d. Residues, ends and D or L forms follow the SMILES beside them. Sta = CC(C)C[C@H](N)[C@@H](O)CC(=O)O; hCys = N[C@@H](CCS)C(=O)O

How the values were obtained:
[1] = target: T1, human kidney renin (Homo sapiens, UniProt P00797); assay: Human renin inhibition; format: biochemical; conditions: purified human kidney renin; dissociation constant of enzyme-inhibitor complex
T1 construct: human kidney renin purified as described in Bangham; from tissue; host or cells: human kidney
T1 sequence (P00797 67-406): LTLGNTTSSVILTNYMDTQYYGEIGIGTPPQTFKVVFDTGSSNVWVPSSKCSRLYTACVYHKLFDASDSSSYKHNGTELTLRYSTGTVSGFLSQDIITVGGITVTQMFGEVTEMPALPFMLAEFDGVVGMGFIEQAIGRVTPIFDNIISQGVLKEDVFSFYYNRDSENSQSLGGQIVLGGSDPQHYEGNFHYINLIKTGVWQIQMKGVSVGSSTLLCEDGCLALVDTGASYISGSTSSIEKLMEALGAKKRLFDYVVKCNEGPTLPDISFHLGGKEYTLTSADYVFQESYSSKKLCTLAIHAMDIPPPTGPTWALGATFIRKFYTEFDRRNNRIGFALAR
Description: An assay was carried out in order to determine the inhibitory potency of the peptides of the present invention. The assay measured the inhibition of human kidney renin purified as described in Bangham, D. R., Robertson, I., Robinson, J. I. S., Robinson, C. J., and Tree, M., Clinical Science and Molecular Medicine, 48 (Supp. 2): 136s-159s (1975), and further purified by affinity chromatography on pepstatin-aminohexyl-Sepharase as described in Poe, M., Wu., J. K., Florance, J. R., Radkey, J. A., Bennett, C. D., and Hoogsteen, K., J. Biol. Chem. (1982, in press). The assay was also in accordance with Poe et al. cited above. Results are expressed as KI values, which refer to the dissociation constant of the inhibited enzyme-inhibitor complex. This KI value was obtained as described above. Pepstatin was used as an active control.

[2] = tested on: hog renin; conditions: after injection of hog renin into nephrectomized rats; cited from earlier work

| Compound | pKi [1] | blood pressure in vivo [2] |
| --- | --- | --- |
| COC(=O)[C@H](Cc1ccccc1)NC(=O)[C@H](CC(C)C)NC(=O)C[C@H](O)[C@H](CC(C)C)NC(=O)[C@@H]1CCSSCC[C@H](N)C(=O)N2CCC[C@H]2C(=O)N[C@@H](Cc2ccccc2)C(=O)N1 (H-[hCys]PF[hCys][Sta]LF-OMe; disulfide 1-4) | 6.39 |  |
| pepstatin |  | reduce blood pressure in vivo |
